Legend:
HMEC-1 cells [1] = test: E-cadherin, VE-cadherin, Vimentin and histone marks in HMEC-1 cells (qPCR, Western blot); assay type: cell-based, human; details: HMEC-1, 10 μM, by 12 and 24 hours after treatment
[2] = system: E-cadherin expression in H520 cells; test: E-cadherin expression, in-cell Western (ICW), H520 cells; assay type: cell-based; details: Homo sapiens, NCI-H520
Experimental: SW620 and H520 cells (5×10^4/100 μL) were seeded in a 96-well plate prior to treatment. Cells were treated with 10 μM concentration of synthesized compound in quadruplicate for 24 hours in RPMI 1640 supplemented medium and 100 μg/mL penicillin-streptomycin. The cells were then fixed with 100% methanol for 20 minutes at 4° C. The wells were then washed 2 times with PBS, permeabilized in 2% bovine serum albumin (BSA) and 0.2% TritonX-100 in PBS for 30 minutes at room temperature with gentle agitation, and blocked in LI-COR blocking buffer for 30 minutes at room temperature with gentle agitation. The cells were then incubated with the following primary antibodies: anti-E-Cadherin (1:500) and anti-α-Tubulin (1:1000) diluted in blocking buffer (1:1 dilution in PBS) for 2 hours at room temperature with gentle agitation. The cells were washed 4 times in PBS-T for 5 minutes each, and then incubated with the following secondary antibodies conjugated to a fluorescent entity: IRDye 800-conjugated goat anti-rabbit IgG (1:1000) and IRDye-700-conjugated goat anti-mouse IgG (1:2000) in blocking buffer (1:1 dilution in PBS) with gentle agitation for 1 h at room temperature. The cells were washed 4 times in PBS-T for 5 minutes each followed by a single wash with PBS. All liquid was removed from the wells and the plates were visualized and analyzed on the Odyssey IR imaging system (LI-COR Biosciences).
The assay was further optimized in the following manner. The cells were washed 2 times with PBS, fixed in 100% methanol at room temperature for 15 minutes, and again washed 2 times with PBS. The cells were then incubated with the following primary antibodies: anti-E-Cadherin (1:200) and anti-α-Tubulin (1:2000) diluted in ice cold 2% bovine serum albumin (BSA) and 0.2% TritonX-100 in PBS for 1 hour at room temperature with gentle agitation. The cells were washed 2 times in PBS and then incubated with the following secondary antibodies conjugated to a fluorescent entity: Licor 800-conjugated goat anti-rabbit IgG (1:2000) and IRDye-700-conjugated goat anti-mouse IgG (1:2000) in ice cold 2% BSA and 0.2% TritonX-100 in PBS with gentle agitation for 45 minutes at room temperature. The wells were washed 2 times in PBS, dried, and analyzed as previously mentioned.
Changes in expression level of E-cadherin in response to 10 μM compound in H520 cells was determined in a cell-based functional assay as described above, and the data are shown in Table IV. The compound number corresponds to the compound numbers used in Table II.
EC50 of inducement of E-cadherin expression in H520 cells was determined in a cell-based functional assay as described above, and the data are shown in Table VI. The compound number corresponds to the compound numbers used in Table II.

[3] = system: E-cadherin mRNA in H520 cells; test: qPCR of E-cadherin specific mRNA, H520 cells; assay type: cell-based; details: H520, 10 μM, 6 hours post-treatment, relative to DMSO
[4] = system: E-cadherin mRNA in SW620inv cells; test: qPCR of E-cadherin specific mRNA, SW620inv cells; assay type: cell-based; details: 10 μM, 6 hours post-treatment, relative to DMSO
HEp3 cells = test: E-cadherin mRNA, protein and histone marks in HEp3 cells; assay type: cell-based, Human; details: by 6 hours after treatment, compared with Compound 124 treatment
Experimental: To determine if Compound 13 restores E-cadherin in HEp3 cells, the effect of Compound 13 treatment on E-cadherin mRNA expression was tested. Compound 13 induced an 8-fold increase in E-cadherin mRNA by 6 hours after treatment in the […] compared with Compound 124 treatment (FIG. 15C). Not only E-cadherin specific mRNA, but also E-cadherin protein, was induced by Compound 13 treatment (FIG. 15D).
Avian embryos were treated with Compound 124 (266Y) or Compound 13 (259Y) 24 hours after intravenous injection of GFP-expressing HEp3 cells. The formation of metastatic colonies was monitored visually by a fluorescent stereoscope at 50× magnification. Representative images are shown, scale bar=500 μm (15A). Colony diameter was quantified at 6 days post injection. The data represent a total of 30 embryos from two independent experiments: 12 treated with Compound 124 (266Y) and 18 treated with Compound 13 (259Y). […] Each data point on the scatterplot represents the geometric mean diameter of 6-10 colonies analyzed per embryo (15B). Relative E-cadherin mRNA expression in HEp3 cells following 6 hours treatment with either Compound 124 (266Y) or Compound 13 (259Y) is shown (15C). Western blot showing E-cadherin protein re-expression in HEp3 cells following treatment with DMSO, Compound 124 (266Y), or Compound 13 (259Y) for 24 hours is shown (15D). […]

HMEC-1 cells [5] = test: WST-1 metabolism (proliferation) assay, HMEC-1 cells; assay type: cell-based, human; details: WST-1, 10 μM, 24 h and 48 h
Experimental: Proliferation, migration, and tubular formation are essential characteristics of endothelial cells for the generation of new blood vessels. […] The lack of effect on cell proliferation is consistent with the lack of effect of compounds of similar class on the proliferation of SW620 and H520 cells (Stoops, S. L., et al. (2011) ACS Chemical Biology 6, 452-465). A scratch wound healing assay was performed on cultured HMEC-1 cells. Confluent monolayers of HMEC-1 cells were disrupted mechanically by scraping them with a sterile pipette tip. Within the observation period of 24 hours, Compound 13 treatment antagonized HMEC-1 monolayer wound healing (FIG. 12).
Referring to FIG. 11, HMEC-1 cells were treated with DMSO or 10 μM Compound 13 (259Y) using 96 wells plate, WST-1 was added (10 μL per well, incubate 37° C. for one hour, read at 450 nm reference 562 nm) at 24 h and 48 h. The blank control was a well with media but NO CELLS+wst-1. Each data point is a biological replicate that is the average of three technical replicates minus the average of three blank wells.

`O=C(NCCCNC(=O)c1cccnc1O)c1cc(-c2ccccc2)on1` [Compound 13, N-(3-(2-hydroxynicotinamido)propyl)-5-phenylisoxazole-3-carboxamide] was tested. Which “induced expression of E-cadherin mRNA species” value (HMEC-1 cells [1]) did it give?
Its value is greater than 5 ×.

And the fold induction at 10 µM ([2]; change in expression level of E-cadherin in response to 10 μM compound, 24 hours, H520 cells)?
The fold induction at 10 µM was 5.54.

And the EC50 ([2]; inducement of E-cadherin expression in H520 cells)?
Its EC50 is 1000 nM.

What about the “increase of E-cadherin specific mRNA” value [3] of the same compound?
Its value is 20 fold.

What about the “increase of E-cadherin specific mRNA” value [4] of the same compound?
The value was 27 fold.

What about the “increase in E-cadherin mRNA” value (HEp3 cells) of the same compound?
The value was 8 fold.

And the HMEC-1 cell proliferation (HMEC-1 cells [5])?
Its HMEC-1 cell proliferation is “no significant effect”.
